Article PMC5218480 (PLoS ONE, 2017)

System: MV-4-11 cells
Experiment: Gene expression microarray analysis (Affymetrix PrimeView) and GSEA
Assay type: cell-based, human
Set-up: RFU PODN (11730768_x_at) / Fold change /veh PODN (11730768_x_at) / RFU LINC00158 (11744669_a_at) / Fold change /veh LINC00158 (11744669_a_at) / RFU DUSP10 (11751237_a_at) / Fold change /veh DUSP10 (11751237_a_at) / RFU ID3 (11757404_x_at) / Fold change /veh ID3 (11757404_x_at) / RFU PLEKHG5 (11737974_s_at) / Fold change /veh PLEKHG5 (11737974_s_at) / RFU LRRC4B (11730491_at) / Fold change /veh LRRC4B (11730491_at) / RFU GIMAP4 (11747438_a_at) / Fold change /veh GIMAP4 (11747438_a_at) / RFU KRT8 (11758183_x_at) / Fold change /veh KRT8 (11758183_x_at) / RFU CNN1 (11734310_a_at) / Fold change /veh CNN1 (11734310_a_at) / RFU VPS37D (11726825_at) / Fold change /veh VPS37D (11726825_at) / RFU C10orf10 (11716522_x_at) / Fold change /veh C10orf10 (11716522_x_at) / RFU KIR2DL2 /// KIR2DL4 /// KIR2DL5A /// KIR2DL5B /// KIR2DS1 /// KIR2DS2 /// KIR2DS3 /// KIR2DS4 /// KIR3DL3 /// KIR3DL3 /// KIR3DS1 (11738374_at) / Fold change /veh KIR2DL2 /// KIR2DL4 /// KIR2DL5A /// KIR2DL5B /// KIR2DS1 /// KIR2DS2 /// KIR2DS3 /// KIR2DS4 /// KIR3DL3 /// KIR3DL3 /// KIR3DS1 (11738374_at) / RFU C1QL1 (11718748_at) / Fold change /veh C1QL1 (11718748_at) / RFU TMPRSS4 (11747572_a_at) / Fold change /veh TMPRSS4 (11747572_a_at) / RFU HAMP (11756126_x_at) / Fold change /veh HAMP (11756126_x_at) / RFU RNFT2 (11725882_a_at) / Fold change /veh RNFT2 (11725882_a_at) / RFU NR4A2 (11747474_a_at) / Fold change /veh NR4A2 (11747474_a_at) / RFU ABCC12 (11746883_a_at) / Fold change /veh ABCC12 (11746883_a_at) / RFU TMEM136 (11760407_x_at) / Fold change /veh TMEM136 (11760407_x_at) / RFU CLDN22 /// WWC2 (11732394_at) / Fold change /veh CLDN22 /// WWC2 (11732394_at) / RFU HLA-DPB1 (11760878_x_at) / Fold change /veh HLA-DPB1 (11760878_x_at) / RFU SPINT1 (11716480_a_at) / Fold change /veh SPINT1 (11716480_a_at) / RFU GAP43 (11754022_s_at) / Fold change /veh GAP43 (11754022_s_at) / RFU A4GNT (11735810_at) / Fold change /veh A4GNT (11735810_at) / RFU PRB3 (11715151_x_at) / Fold change /veh PRB3 (11715151_x_at) / RFU TUBB4B (11761932_at) / Fold change /veh TUBB4B (11761932_at) / RFU CAPN14 (11732068_a_at) / Fold change /veh CAPN14 (11732068_a_at) / RFU TMCC2 (11721928_a_at) / Fold change /veh TMCC2 (11721928_a_at) / RFU IRGQ (11745062_a_at) / Fold change /veh IRGQ (11745062_a_at) / RFU FAM174B (11720279_a_at) / Fold change /veh FAM174B (11720279_a_at) / RFU TMPRSS4 (11748680_a_at) / Fold change /veh TMPRSS4 (11748680_a_at) / RFU FAM212B (11763350_a_at) / Fold change /veh FAM212B (11763350_a_at) / RFU PLEKHG5 (11743358_a_at) / Fold change /veh PLEKHG5 (11743358_a_at) / RFU ZSCAN30 (11745921_a_at) / Fold change /veh ZSCAN30 (11745921_a_at) / RFU CMKLR1 (11741424_a_at) / Fold change /veh CMKLR1 (11741424_a_at) / RFU LOC101060620 /// MAPK8IP1 (11723275_at) / Fold change /veh LOC101060620 /// MAPK8IP1 (11723275_at) / RFU SPTSSB (11747773_x_at) / Fold change /veh SPTSSB (11747773_x_at) / RFU PRSS12 (11739890_at) / Fold change /veh PRSS12 (11739890_at) / RFU BIN1 (11741810_x_at) / Fold change /veh BIN1 (11741810_x_at) / RFU WNT11 (11732464_a_at) / Fold change /veh WNT11 (11732464_a_at) / RFU C10orf10 (11716521_a_at) / Fold change /veh C10orf10 (11716521_a_at) / RFU C5orf56 (11738089_at) / Fold change /veh C5orf56 (11738089_at) / RFU CYB561 (11721691_x_at) / Fold change /veh CYB561 (11721691_x_at) / RFU ANKRD19P (11752326_a_at) / Fold change /veh ANKRD19P (11752326_a_at) / RFU OR2T12 /// OR2T33 /// OR2T8 (11738714_s_at) / Fold change /veh OR2T12 /// OR2T33 /// OR2T8 (11738714_s_at) / RFU VCAN (11748164_a_at) / Fold change /veh VCAN (11748164_a_at) / RFU JSRP1 (11732532_at) / Fold change /veh JSRP1 (11732532_at) / RFU KRTAP10-11 (11738290_x_at) / Fold change /veh KRTAP10-11 (11738290_x_at) / RFU MYO3A (11730013_a_at) / Fold change /veh MYO3A (11730013_a_at) / RFU EBF3 (11725865_a_at) / Fold change /veh EBF3 (11725865_a_at) / RFU CAMK2N1 (11719241_x_at) / Fold change /veh CAMK2N1 (11719241_x_at) / RFU C5orf56 (11738088_a_at) / Fold change /veh C5orf56 (11738088_a_at) / RFU OLFML3 (11715873_a_at) / Fold change /veh OLFML3 (11715873_a_at) / RFU LOC100653217 /// NTM (11731650_a_at) / Fold change /veh LOC100653217 /// NTM (11731650_a_at) / RFU MAPK11 (11762145_a_at) / Fold change /veh MAPK11 (11762145_a_at) / RFU FIZ1 (11724087_x_at) / Fold change /veh FIZ1 (11724087_x_at) / RFU OASL (11726364_x_at) / Fold change /veh OASL (11726364_x_at) / RFU SOX15 (11748057_x_at) / Fold change /veh SOX15 (11748057_x_at) / RFU CD79A (11719716_a_at) / Fold change /veh CD79A (11719716_a_at) / RFU HIST1H1D (11736915_at) / Fold change /veh HIST1H1D (11736915_at) / RFU CASKIN2 (11723855_a_at) / Fold change /veh CASKIN2 (11723855_a_at) / RFU LOC730098 (11760151_x_at) / Fold change /veh LOC730098 (11760151_x_at) / RFU OR4N2 (11742367_at) / Fold change /veh OR4N2 (11742367_at) / RFU PRRT2 (11749266_a_at) / Fold change /veh PRRT2 (11749266_a_at) / RFU SNX32 (11753110_a_at) / Fold change /veh SNX32 (11753110_a_at) / RFU CDHR5 (11726645_a_at) / Fold change /veh CDHR5 (11726645_a_at) / RFU RCAN1 (11760418_a_at) / Fold change /veh RCAN1 (11760418_a_at) / RFU FAM167A (11723789_a_at) / Fold change /veh FAM167A (11723789_a_at) / RFU FAM26E (11764081_at) / Fold change /veh FAM26E (11764081_at) / RFU ISYNA1 (11749810_s_at) / Fold change /veh ISYNA1 (11749810_s_at) / RFU ACY1 (11761880_at) / Fold change /veh ACY1 (11761880_at) / RFU 11764098_at / Fold change /veh 11764098_at / RFU SAMD14 (11745864_x_at) / Fold change /veh SAMD14 (11745864_x_at) / RFU NPB (11741838_a_at) / Fold change /veh NPB (11741838_a_at) / RFU TMPRSS6 (11731388_a_at) / Fold change /veh TMPRSS6 (11731388_a_at) / RFU KRTAP10-2 (11738614_at) / Fold change /veh KRTAP10-2 (11738614_at) / RFU ARHGAP8 /// PRR5-ARHGAP8 (11727945_x_at) / Fold change /veh ARHGAP8 /// PRR5-ARHGAP8 (11727945_x_at) / RFU KRTAP5-7 /// NADSYN1 (11734609_at) / Fold change /veh KRTAP5-7 /// NADSYN1 (11734609_at) / RFU RASL12 (11751679_a_at) / Fold change /veh RASL12 (11751679_a_at) / RFU CDKN2B (11736163_a_at) / Fold change /veh CDKN2B (11736163_a_at) / RFU PRF1 (11729649_at) / Fold change /veh PRF1 (11729649_at) / RFU, ZNF638 /// ZNF638-IT1 / Fold change vs veh, ZNF638 /// ZNF638-IT1 / RFU, PANK3 / Fold change vs veh, PANK3 / RFU, SH3YL1 / Fold change vs veh, SH3YL1 / RFU, ZEB2 / Fold change vs veh, ZEB2 / RFU, NRIP1 / Fold change vs veh, NRIP1 / RFU, PTTG1IP / Fold change vs veh, PTTG1IP / RFU, CAPN2 / Fold change vs veh, CAPN2 / RFU, MED14 / Fold change vs veh, MED14 / RFU, SNORA58 / Fold change vs veh, SNORA58 / RFU, C1orf63 / Fold change vs veh, C1orf63 / RFU, LRRFIP1 / Fold change vs veh, LRRFIP1 / RFU, NDUFAF7 / Fold change vs veh, NDUFAF7 / RFU, SLC12A2 / Fold change vs veh, SLC12A2 / RFU, IBTK / Fold change vs veh, IBTK / RFU, ESF1 / Fold change vs veh, ESF1 / Fold change vs veh, TMEM50B / RFU, TAOK1 / Fold change vs veh, TAOK1 / RFU, ACBD3 / Fold change vs veh, ACBD3 / RFU, TMA16 / Fold change vs veh, TMA16 / RFU, RWDD3 / Fold change vs veh, RWDD3 / RFU, BCAT1 / Fold change vs veh, BCAT1 / RFU, EDEM3 / Fold change vs veh, EDEM3 / RFU, TMEM33 / Fold change vs veh, TMEM33 / RFU, WDR75 / Fold change vs veh, WDR75 / RFU, AHCTF1 / Fold change vs veh, AHCTF1 / RFU, TFRC / Fold change vs veh, TFRC / RFU, ZDHHC17 / Fold change vs veh, ZDHHC17 / RFU, NOM1 / Fold change vs veh, NOM1 / RFU, ARL8B / Fold change vs veh, ARL8B / RFU, ZBTB11 / Fold change vs veh, ZBTB11 / RFU, TAMM41 / Fold change vs veh, TAMM41 / RFU, KIAA1704 /// LOC100996395 / Fold change vs veh, KIAA1704 /// LOC100996395 / RFU, ING1 / Fold change vs veh, ING1 / RFU, TRMT61B / Fold change vs veh, TRMT61B / RFU, FUBP3 / Fold change vs veh, FUBP3 / RFU, TP53 / Fold change vs veh, TP53 / RFU, TNKS2 / Fold change vs veh, TNKS2 / RFU, ZFP14 / Fold change vs veh, ZFP14 / RFU, ACTR2 / Fold change vs veh, ACTR2 / RFU, PPP3R1 / Fold change vs veh, PPP3R1 / RFU, PIK3R1 / Fold change vs veh, PIK3R1 / RFU, HNRNPA1 / Fold change vs veh, HNRNPA1 / RFU, RNF170 / Fold change vs veh, RNF170 / RFU, ZNF28 / Fold change vs veh, ZNF28 / RFU, RNGTT / Fold change vs veh, RNGTT / RFU, OGT / Fold change vs veh, OGT / RFU, BRD1 / Fold change vs veh, BRD1 / RFU, MARS / Fold change vs veh, MARS / RFU, ZNF655 / Fold change vs veh, ZNF655 / RFU, FAHD1 / Fold change vs veh, FAHD1 / RFU, BDP1 / Fold change vs veh, BDP1 / RFU, LRRCC1 / Fold change vs veh, LRRCC1 / RFU, ARID1A / Fold change vs veh, ARID1A / RFU, ZNF146 / Fold change vs veh, ZNF146 / RFU, ZNF330 / Fold change vs veh, ZNF330 / RFU, GPN3 / Fold change vs veh, GPN3 / RFU, C9orf123 / Fold change vs veh, C9orf123 / RFU, N4BP2L2 / Fold change vs veh, N4BP2L2 / RFU, ARFIP1 / Fold change vs veh, ARFIP1 / RFU, FAM179B / Fold change vs veh, FAM179B / RFU, BCL10 / Fold change vs veh, BCL10 / RFU, UHRF1BP1L / Fold change vs veh, UHRF1BP1L / RFU, BET1 / Fold change vs veh, BET1 / RFU, CNOT2 / Fold change vs veh, CNOT2 / RFU, ZNF268 / Fold change vs veh, ZNF268 / Fold change vs veh, ZNF507 / RFU, DGCR2 / Fold change vs veh, DGCR2 / RFU, WDSUB1 / Fold change vs veh, WDSUB1 / Fold change vs veh, HSP90B1 /// MIR3652 / RFU, ADSS / Fold change vs veh, ADSS / RFU, GK / Fold change vs veh, GK / RFU, ZNF148 / Fold change vs veh, ZNF148 / RFU, TAF9 / Fold change vs veh, TAF9 / RFU, SLC1A5 / Fold change vs veh, SLC1A5 / RFU, SLMO2 / Fold change vs veh, SLMO2 / RFU, ABCC4 / Fold change vs veh, ABCC4 / RFU, LOC101060439 /// RAP1B / Fold change vs veh, LOC101060439 /// RAP1B / RFU, RFX7 / Fold change vs veh, RFX7 / RFU, GTPBP10 / Fold change vs veh, GTPBP10 / RFU, CNEP1R1 / Fold change vs veh, CNEP1R1 / RFU, BIVM-ERCC5 /// ERCC5 / Fold change vs veh, BIVM-ERCC5 /// ERCC5 / RFU, ILF3 / Fold change vs veh, ILF3 / RFU 11762660_at / Fold change /veh 11762660_at / RFU VCAN (11757783_s_at) / Fold change /veh VCAN (11757783_s_at) / RFU DDX43 (11728927_at) / Fold change /veh DDX43 (11728927_at) / RFU KRT8 (11758188_x_at) / Fold change /veh KRT8 (11758188_x_at) / RFU NKD1 (11759106_at) / Fold change /veh NKD1 (11759106_at) / RFU SRD5A1 (11742802_a_at) / Fold change /veh SRD5A1 (11742802_a_at) / RFU TPSAB1 /// TPSB2 (11721975_s_at) / Fold change /veh TPSAB1 /// TPSB2 (11721975_s_at) / RFU GSTM3 (11746129_a_at) / Fold change /veh GSTM3 (11746129_a_at) / RFU IL23R (11737362_x_at) / Fold change /veh IL23R (11737362_x_at) / RFU TMEM51 (11727254_a_at) / Fold change /veh TMEM51 (11727254_a_at) / RFU PIWIL2 (11732686_x_at) / Fold change /veh PIWIL2 (11732686_x_at) / RFU ORM1 (11744905_x_at) / Fold change /veh ORM1 (11744905_x_at) / RFU CCDC152 (11743942_at) / Fold change /veh CCDC152 (11743942_at) / RFU ECM1 (11717891_a_at) / Fold change /veh ECM1 (11717891_a_at) / RFU IL23R (11748794_a_at) / Fold change /veh IL23R (11748794_a_at) / RFU TNFAIP8L3 (11732012_x_at) / Fold change /veh TNFAIP8L3 (11732012_x_at) / RFU MBOAT4 (11741988_at) / Fold change /veh MBOAT4 (11741988_at) / RFU 11764193_at / Fold change /veh 11764193_at / RFU TMEM53 (11763286_at) / Fold change /veh TMEM53 (11763286_at) / RFU MAGEB2 (11727129_at) / Fold change /veh MAGEB2 (11727129_at) / RFU TMEM200A (11744735_a_at) / Fold change /veh TMEM200A (11744735_a_at) / RFU CCDC152 (11751479_a_at) / Fold change /veh CCDC152 (11751479_a_at) / RFU FAM211A (11726209_a_at) / Fold change /veh FAM211A (11726209_a_at) / RFU RGS16 (11746705_a_at) / Fold change /veh RGS16 (11746705_a_at) / RFU VCAN (11755009_s_at) / Fold change /veh VCAN (11755009_s_at) / RFU RHOB (11743442_s_at) / Fold change /veh RHOB (11743442_s_at) / RFU RGS16 (11720943_a_at) / Fold change /veh RGS16 (11720943_a_at) / RFU RGS16 (11720944_at) / Fold change /veh RGS16 (11720944_at) / RFU, VPS4B / Fold change vs veh, VPS4B / RFU, CREB1 / Fold change vs veh, CREB1 / RFU, DNAJC13 / Fold change vs veh, DNAJC13 / RFU, GNAQ / Fold change vs veh, GNAQ / RFU, CDK5R1 / Fold change vs veh, CDK5R1 / RFU, ZRANB3 / Fold change vs veh, ZRANB3 / RFU, CUL4A / Fold change vs veh, CUL4A / RFU, CCNY / Fold change vs veh, CCNY / RFU, UFL1 / Fold change vs veh, UFL1 / RFU, COG3 / Fold change vs veh, COG3 / RFU, DIAPH2 / Fold change vs veh, DIAPH2 / RFU, SKA2 / Fold change vs veh, SKA2 / RFU, AFF3 / Fold change vs veh, AFF3 / RFU, LMF1 / Fold change vs veh, LMF1 / RFU, IPO11 / Fold change vs veh, IPO11 / RFU, DFFB / Fold change vs veh, DFFB / RFU, FOXP1 / Fold change vs veh, FOXP1 / RFU, CARD8 / Fold change vs veh, CARD8 / RFU, STRN3 / Fold change vs veh, STRN3 / RFU, ADK / Fold change vs veh, ADK / RFU, RASSF2 / Fold change vs veh, RASSF2 / RFU, WIPF1 / Fold change vs veh, WIPF1 / RFU, LARP1B / Fold change vs veh, LARP1B / RFU, RASA1 / Fold change vs veh, RASA1 / RFU, RB1 / Fold change vs veh, RB1 / RFU, PPFIA1 / Fold change vs veh, PPFIA1 / RFU, MAT2A / Fold change vs veh, MAT2A / RFU, CCT5 / Fold change vs veh, CCT5 / RFU, WDR92 / Fold change vs veh, WDR92 / RFU, CUX1 / Fold change vs veh, CUX1 / RFU, TTC7A / Fold change vs veh, TTC7A / RFU, TMEM135 / Fold change vs veh, TMEM135 / RFU, DEPTOR / Fold change vs veh, DEPTOR / RFU, CPM / Fold change vs veh, CPM / RFU, DNAJB6 / Fold change vs veh, DNAJB6 / RFU, CACNA2D3 / Fold change vs veh, CACNA2D3 / RFU, DTX4 / Fold change vs veh, DTX4 / RFU, TFCP2 / Fold change vs veh, TFCP2 / RFU, GMCL1 /// GMCL1P1 / Fold change vs veh, GMCL1 /// GMCL1P1 / RFU, AEBP2 / Fold change vs veh, AEBP2 / RFU, SNHG1 /// SNORD22 /// SNORD25 /// SNORD26 /// SNORD27 /// SNORD28 /// SNORD29 /// SNORD31 / Fold change vs veh, SNHG1 /// SNORD22 /// SNORD25 /// SNORD26 /// SNORD27 /// SNORD28 /// SNORD29 /// SNORD31 / Fold change (Aza/veh), C12orf56 (ProbeSet 11735607_a_at) / Fold change (ACY-1035/veh), C12orf56 (ProbeSet 11735607_a_at) / Fold change (Aza/veh), FGFR1OP (ProbeSet 11751329_s_at) / Fold change (ACY-1035/veh), FGFR1OP (ProbeSet 11751329_s_at) / Fold change (Aza/veh), VPS36 (ProbeSet 11739960_a_at) / Fold change (ACY-1035/veh), VPS36 (ProbeSet 11739960_a_at) / RFU SYPL1 (11715823_x_at) / Fold change /veh SYPL1 (11715823_x_at) / RFU IGFBP7 (11715501_s_at) / Fold change /veh IGFBP7 (11715501_s_at) / RFU REEP3 (11722064_at) / Fold change /veh REEP3 (11722064_at) / RFU IGLL1 (11728026_x_at) / Fold change /veh IGLL1 (11728026_x_at): dose or concentration left out as unconfirmed
Conditions: MV-4-11 cells, 48 hours

Nc1ccc(-c2cccs2)cc1NC(=O)c1ccc2c(c1)cc(C1CC1)n2CCN1CCOCC1 [ACY-1035]
Fold change /veh VPS37D (11726825_at): 1.08
